Patent publication US4432973A, “Benzoyl- and α-hydroxybenzyl-phenyl-glycosides and application thereof in therapeutics” (Societe de Recherches Industrielles (S.O.R.I.), priority 1980, dated 1984)

Legend:
[1] = Acute toxicity in the mouse by the I.P. route; assay type: in vivo; conditions: for LD50: read-out: DL-50 (lethal dose involving the death of half of the animals)
Source text: The acute toxicity was studied in the mouse by the I.P. route. It is expressed in the form of DL-50 (lethal dose involving the death of half of the animals) or DL-0 (maximum non-lethal dose).

[2] = Anti-ulcer activity: ulcer caused by aspirin; assay type: in vivo, rat (male Wistar); conditions: 100 mg/kg I.P.; aspirin 192 mg/kg per os; standardised to control batch and cimetidine (index 1)
Protocol: The experiment is carried out on male Wistar rats of 180 to 200 g. The products to be tested are administered at 100 mg/kg I.P. (unless indicated to the contrary in Table IV).
At t=0, the rats are made to fast and a first administration of the product to be tested is made.
At t=18 hours, 2 ml of an ulcer-forming suspension with 192 mg of aspirin/kg are administered per os then a second administration of the product to be tested is made.
At t=22 hours, the animals are sacrificed and the ulcers are marked as follows: small point-like ulcers: mark 1 more extensive ulcers: mark 3 highly extensive or very deep ulcers: mark 9
This marking is standardised with respect to a control batch and to cimetidine (a reference product) to which index 1 has been allocated.

[3] = tested on: blood platelet aggregation; assay: Spontaneous aggregation: blood platelet anti-aggregation activity; assay type: in vivo, rat (adult male); conditions: t=5 hours, rat; for inhibition in vivo at 100 mg/kg: ip, 100 mg/kg I.P.
Protocol: The technique used is that of Sanders described in Laboratory Animal Science 27 (No. 5), pages 757-761 (1977).
After administration at 100 mg/kg I.P. (unless specified to the contrary in Table V hereinbelow) of the product to be tested to adult male reproducing rats, two blood samples are taken, one on sodium citrate and the other on sodium citrate treated with formaldehyde at instant t=5 hours.
After centrifugation of the samples, a platelet count is made on the supernatant liquid. The spontaneous aggregation index according to Wu and Hook Stroke 6, 521-524 (1975) is expressed by the relation: [formula]

[4] = Anti-hypoxic activity: survival to hypoxia (nitrogen-oxygen 95:5); assay type: in vivo, mouse (Swiss male); conditions: I.P., 1/10th of LD-50 or 100 mg/kg when LD-0 ≥ 800 mg/kg; up to 15 minutes; mouse
Protocol: The experiment is carried out on batches of 20 Swiss male mice weighing from 20 to 30 g. Each product to be tested is administered to the mice by intraperitoneal route at a dose corresponding to 1/10th of the LD-50 or at a dose of 100 mg/kg when the LD-0 is higher than or equal to 800 mg/kg. The mice are placed in a nitrogen-oxygen (95:5) v/v atmosphere. The survival time of the mice is then measured up to 15 minutes maximum.
The results shown in Table VII are expressed in percentage of survival with respect to a non-treated control batch and a batch treated with an anti-hypoxic reference product [specialty known under the trade name of "Duxil" and which is constituted by a mixture of Almitrine bis-methanesulfonate and of Raubasine in the weight ratio 3:1], the anti-hypoxic reference product being administered at the dose of 18 mg/kg I.P.

[5] = Veinous thrombosis: veinous anti-thrombus activity; assay type: in vivo; conditions: Rattus norvegicus, ip, 100 mg/kg I.P., 4 to 5 hours after administration, read-out: Diminution of veinous thrombus
Protocol: The technique used is similar to the one described by Peterson-Zucker in Thrombo.Diath.Haemorh. 23, 1, (1970).
An occlusive thrombus is created in the […] vena cava of a rat by the combined action of an endothelial alteration and a veinous stasis for 15 mins. and 4 to 5 hours after administration of the product to be tested (100 mg/kg I.P.).

For `O=C(c1ccc(O[C@@H]2OC[C@@H](O)[C@H](O)[C@H]2O)cc1)c1ccc([N+](=O)[O-])cc1` [Example 1, [4-(4-nitrobenzoyl)-phenyl]-β-D-xylopyranoside], the “DL-0 (maximum non-lethal dose)” value ([1]; in vivo, ip) was > 800 mg/kg IP, the Ulcer index [2] was 0.56 and the inhibition in vivo at 100 mg/kg ([3]; Platelet) was ≥ 40%. For the same compound, the “Survival (survival percentage to hypoxic aggression)” value [4] was “+++ (higher than or equal to 80%)”.

For `Nc1ccc(C(=O)c2ccc(O[C@@H]3OC[C@@H](O)[C@H](O)[C@H]3O)cc2)cc1` [Example 8], the “DL-0 (maximum non-lethal dose)” value ([1]; in vivo, ip) was > 800 mg/kg IP, the Ulcer index [2] was 0.25 and the inhibition in vivo at 100 mg/kg ([3]; Platelet) was ≥ 40%. For the same compound, the inhibition in vivo at 100 mg/kg [5] was ≥ 50% and the “Survival (survival percentage to hypoxic aggression)” value [4] was “+++ (higher than or equal to 80%)”.

For `OC[C@H]1O[C@@H](Oc2ccc(C(O)c3ccc(Cl)cc3)cc2)[C@H](O)[C@@H](O)[C@@H]1O` (stereo partly drawn) [Example 131], the LD50 ([1]; in vivo, ip, I.P.) was 730 mg/kg, the inhibition in vivo at 100 mg/kg [5] was 30 to 49% and the “Survival (survival percentage to hypoxic aggression)” value [4] was “++ (from 50 to 79%)”.

In the case of `CC(=O)O[C@@H]1[C@@H](OC(C)=O)[C@H](Oc2c(C)cc(C(=O)c3ccc(Cl)cc3)cc2C)OC[C@H]1OC(C)=O` [Example 114], the “DL-0 (maximum non-lethal dose)” value ([1]; in vivo, ip) is reported as > 800 mg/kg IP, the inhibition in vivo at 100 mg/kg ([3]; Platelet) is reported as 25 to 39% and the “Survival (survival percentage to hypoxic aggression)” value [4] is reported as “++ (from 50 to 79%)”.

With `Cc1ccccc1C(=O)c1ccc(O[C@@H]2OC[C@@H](O)[C@H](O)[C@H]2O)cc1` [Example 14] the LD50 ([1]; in vivo, ip, I.P.) was 740 mg/kg, the inhibition in vivo at 75 mg/kg ([3]; Platelet, 75 mg/kg IP) was ≥ 40% and the inhibition in vivo at 100 mg/kg [5] was ≥ 50%.

In the case of `CC(=O)N[C@H]1[C@H](Oc2ccc(C(=O)c3ccc(C(F)(F)F)cc3)cc2)O[C@H](CO)[C@@H](O)[C@@H]1O` [Example 118], the “DL-0 (maximum non-lethal dose)” value ([1]; in vivo, ip) is reported as > 800 mg/kg IP, the Ulcer index [2] is reported as 0.53 and the inhibition in vivo at 100 mg/kg ([3]; Platelet) is reported as 25 to 39%. For the same compound, the “Survival (survival percentage to hypoxic aggression)” value [4] was “++ (from 50 to 79%)”.

In the case of `OC(c1ccc(Cl)cc1)c1ccc(O[C@@H]2OC[C@@H](O)[C@H](O)[C@H]2O)cc1` (stereo partly drawn) [Example 94], the “DL-50 (lethal dose involving the death of half of the animals)” value ([1]; I.P.) is reported as 330 mg/kg IP, the “Inhibition of platelet aggregation” value ([3]; 33 mg/kg IP) is reported as “+ (inhibition of 25 to 39%)” and the “Survival (survival percentage to hypoxic aggression)” value [4] is reported as “+ (from 30 to 49%)”.

In the case of `O=[N+]([O-])c1ccccc1C(O)c1ccc(O[C@@H]2OC[C@@H](O)[C@H](O)[C@H]2O)cc1` (stereo partly drawn) [Example 101], the “DL-0 (maximum non-lethal dose)” value ([1]; in vivo, ip) is reported as > 800 mg/kg IP, the Ulcer index [2] is reported as 0.56 and the inhibition in vivo at 100 mg/kg [5] is reported as ≥ 50%. For the same compound, the “Survival (survival percentage to hypoxic aggression)” value [4] was “+ (from 30 to 49%)”.

With `Cc1ccccc1C(=O)c1cc(C)c(O[C@@H]2OC[C@@H](O)[C@H](O)[C@H]2O)c(C)c1` [Example 21] the LD50 ([1]; in vivo, ip, I.P.) was 600 mg/kg, the Ulcer index [2] was 0.16 and the inhibition in vivo at 100 mg/kg ([3]; Platelet) was ≥ 40%.

For `CC(=O)O[C@@H]1[C@@H](OC(C)=O)[C@H](Oc2ccc(C(=O)c3cccc(C(F)(F)F)c3)cc2)OC[C@H]1OC(C)=O` [Example 108], the “DL-0 (maximum non-lethal dose)” value ([1]; in vivo, ip) was > 800 mg/kg IP, the Ulcer index [2] was 0.30 and the inhibition in vivo at 100 mg/kg [5] was 30 to 49%. The “Survival (survival percentage to hypoxic aggression)” value [4] was “+ (from 30 to 49%)”.

With `COc1cc(C(=O)c2ccc(O[C@@H]3OC[C@@H](OC(C)=O)[C@H](OC(C)=O)[C@H]3OC(C)=O)cc2)cc(OC)c1OC` [Example 79] the “DL-0 (maximum non-lethal dose)” value ([1]; I.P.) was > 800 mg/kg IP and the inhibition in vivo at 100 mg/kg ([3]; Platelet) was ≥ 40%.

With `CC(=O)O[C@@H]1[C@@H](OC(C)=O)[C@H](Oc2ccc(C(=O)c3ccc([N+](=O)[O-])cc3)cc2C)OC[C@H]1OC(C)=O` [Example 104] the “DL-0 (maximum non-lethal dose)” value ([1]; in vivo, ip) was > 800 mg/kg IP, the Ulcer index [2] was 0.84 and the inhibition in vivo at 100 mg/kg ([3]; Platelet) was ≥ 40%. For the same compound, the “Survival (survival percentage to hypoxic aggression)” value [4] was “++ (from 50 to 79%)”.

With `O=C(c1ccc(Cl)cc1)c1ccc(O[C@@H]2OC[C@@H](O)[C@H](O)[C@H]2O)cc1` [Example 3] the “DL-0 (maximum non-lethal dose)” value ([1]; in vivo, ip) was > 800 mg/kg IP, the inhibition in vivo at 100 mg/kg [5] was 30 to 49% and the “Survival (survival percentage to hypoxic aggression)” value [4] was “+++ (higher than or equal to 80%)”.
